The values below come from US8217045B2, “Organic compounds” (Novartis AG, priority 2007, dated 2012).

Molecules are shown by their SMILES.

Assay [1] concerns the target Bcr-Abl (Homo sapiens, UniProt P00519). As to the kind of experiment: Bcr-Abl phosphorylation capture ELISA in 32D-Bcr-Abl cells. The class given is cell-based, murine. The following applies: 90 min at 37° C., read-out: IC50, reduction of Bcr-Abl phosphorylation. The source says:
32D cl3 cells are obtained from the American Type Culture Collection (ATCC CRL11346) and Ba/F3 cells are obtained from the German Collection of Microorganisms and Cell Cultures (DSMZ, Braunschweig and DSMZ No. ACC 300) Palacios et al., Nature, 1984; 309:126 and Palacios et al., Cell, 1985:41:72.
Oncogene 1996; 12: 839-46; and Okuda K, Golub T R, Gilliland D G, Griffin J D. p210BCR-ABL, p190BCR-ABL, and TEL/ABL activate similar signal transduction pathways in hematopoietic cell lines. Oncogene 1996; 13:1147-52.)
The cells express the fusion Bcr-Abl protein with a constitutively active Abl kinase and proliferate growth factor independent. The cells are expanded in RPMI 1640 (AMIMED), 10% fetal calf serum (FCS), 2 mM glutamine (Gibco) (“complete medium”), and a working stock is prepared by freezing aliquots of 2×10^6 cells per vial in freezing medium (95% FCS, 5% DMSO (SIGMA)). After thawing, the cells are used during maximally 10-12 passages for the experiments. The antibody anti-Abl SH3 domain cat. #06-466 from Upstate Biotechnology is used for the ELISA. For detection of Bcr-Abl phosphorylation, the anti-phosphotyrosine antibody Ab PY20, labelled with alkaline phosphatase ([…]) from ZYMED (cat. #03-7722) is used. […]
Background: ELISA stands for enzyme-linked immunosorbent assay.

Assay [2] addresses T1, c-Abl (His-cAbl) (Homo sapiens, UniProt P00519).
T1 construct: The His-tagged kinase domain of Abl is cloned and expressed; His tag; made in house; host or cells: baculovirus/Sf9
T1 sequence (P00519 242-493 limits assumed): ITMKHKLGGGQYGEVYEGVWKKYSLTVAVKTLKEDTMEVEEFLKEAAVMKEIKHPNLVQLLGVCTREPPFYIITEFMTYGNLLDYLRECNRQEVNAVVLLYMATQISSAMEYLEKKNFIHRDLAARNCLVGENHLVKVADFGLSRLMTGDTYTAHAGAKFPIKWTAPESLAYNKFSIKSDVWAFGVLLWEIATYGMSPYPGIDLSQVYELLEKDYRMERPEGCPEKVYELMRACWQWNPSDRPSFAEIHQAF
Put plainly: in vitro enzyme assay, wild-type Abl catalysed phosphorylation. The class given is biochemical. The settings on record: 16 nM His-cAbl, 10 μM ATP, 1 hour at 30° C.; read-out: IC50, inhibition of wild-type Abl catalysed phosphorylation. How it is done:
Test for activity against wild-type and mutant Abl protein tyrosine kinase:
The test, an in vitro enzyme assay, is conducted as a filter binding assay as follows: The His-tagged kinase domain of Abl is cloned and expressed in the baculovirus/Sf9 system as described by Bhat et al., J. Biol. Chem. 1997; 272:16170-16175. A protein of 37 kD (Abl kinase) is purified by a two-step procedure over a Cobalt metal chelate column followed by an anion exchange column with a yield of 1-2 mg/L of Sf9 cells. The purity of the Abl kinase is >90% as judged by SDS-PAGE after Coomassie blue staining.
Based on the optimized assay conditions for the individual kinases a specific assay set-up was chosen. The assays were prepared and incubated on a liquid handling robot system using 384-well plates. To the assay plates containing 50 nL compound or control solutions, 4.5 μL of solution A consisting of the peptide substrate and ATP in assay buffer were added. The reactions were initiated by adding 4.5 μL of solution B consisting of the respective kinase in assay buffer. The reactions were incubated for 1 hour at 30° C. in a final reaction volume of 9.05 μL. Based on a generic assay buffer (50 mM HEPES pH7.5, 1 mM DTT, 0.02% Tween20, 0.02% BSA), following components were added depending on the chosen kinase: • c-Abl: 16 nM His-cAbl, 5 μM peptide substrate (FITC-Ahx-EAIYAAPFAKKK-CONH2), 10 mM MgCl2, 10 μM ATP • c-Abl-T315I: 2.4 nM His-cAbl-T315I, 5 μM peptide substrate (FITC-Ahx-EAIYAAPFAKKK-CONH2), 10 mM MgCl2, 10 μM ATP
After incubation, the kinase reactions were stopped by the addition of 16 μL of stop solution (100 mM HEPES, 5% DMSO, 0.1% Coating reagent, 10 mM EDTA, 0.015% Brij 35). Subsequently, the assay plates were transferred to a Caliper LabChip3000 reader and the unphosphorylated substrate and the phosphorylated product were separated and quantitated in a microfluidic chip.

Bcr-Abl, sequence (P00519 with tags, fused parts or gaps): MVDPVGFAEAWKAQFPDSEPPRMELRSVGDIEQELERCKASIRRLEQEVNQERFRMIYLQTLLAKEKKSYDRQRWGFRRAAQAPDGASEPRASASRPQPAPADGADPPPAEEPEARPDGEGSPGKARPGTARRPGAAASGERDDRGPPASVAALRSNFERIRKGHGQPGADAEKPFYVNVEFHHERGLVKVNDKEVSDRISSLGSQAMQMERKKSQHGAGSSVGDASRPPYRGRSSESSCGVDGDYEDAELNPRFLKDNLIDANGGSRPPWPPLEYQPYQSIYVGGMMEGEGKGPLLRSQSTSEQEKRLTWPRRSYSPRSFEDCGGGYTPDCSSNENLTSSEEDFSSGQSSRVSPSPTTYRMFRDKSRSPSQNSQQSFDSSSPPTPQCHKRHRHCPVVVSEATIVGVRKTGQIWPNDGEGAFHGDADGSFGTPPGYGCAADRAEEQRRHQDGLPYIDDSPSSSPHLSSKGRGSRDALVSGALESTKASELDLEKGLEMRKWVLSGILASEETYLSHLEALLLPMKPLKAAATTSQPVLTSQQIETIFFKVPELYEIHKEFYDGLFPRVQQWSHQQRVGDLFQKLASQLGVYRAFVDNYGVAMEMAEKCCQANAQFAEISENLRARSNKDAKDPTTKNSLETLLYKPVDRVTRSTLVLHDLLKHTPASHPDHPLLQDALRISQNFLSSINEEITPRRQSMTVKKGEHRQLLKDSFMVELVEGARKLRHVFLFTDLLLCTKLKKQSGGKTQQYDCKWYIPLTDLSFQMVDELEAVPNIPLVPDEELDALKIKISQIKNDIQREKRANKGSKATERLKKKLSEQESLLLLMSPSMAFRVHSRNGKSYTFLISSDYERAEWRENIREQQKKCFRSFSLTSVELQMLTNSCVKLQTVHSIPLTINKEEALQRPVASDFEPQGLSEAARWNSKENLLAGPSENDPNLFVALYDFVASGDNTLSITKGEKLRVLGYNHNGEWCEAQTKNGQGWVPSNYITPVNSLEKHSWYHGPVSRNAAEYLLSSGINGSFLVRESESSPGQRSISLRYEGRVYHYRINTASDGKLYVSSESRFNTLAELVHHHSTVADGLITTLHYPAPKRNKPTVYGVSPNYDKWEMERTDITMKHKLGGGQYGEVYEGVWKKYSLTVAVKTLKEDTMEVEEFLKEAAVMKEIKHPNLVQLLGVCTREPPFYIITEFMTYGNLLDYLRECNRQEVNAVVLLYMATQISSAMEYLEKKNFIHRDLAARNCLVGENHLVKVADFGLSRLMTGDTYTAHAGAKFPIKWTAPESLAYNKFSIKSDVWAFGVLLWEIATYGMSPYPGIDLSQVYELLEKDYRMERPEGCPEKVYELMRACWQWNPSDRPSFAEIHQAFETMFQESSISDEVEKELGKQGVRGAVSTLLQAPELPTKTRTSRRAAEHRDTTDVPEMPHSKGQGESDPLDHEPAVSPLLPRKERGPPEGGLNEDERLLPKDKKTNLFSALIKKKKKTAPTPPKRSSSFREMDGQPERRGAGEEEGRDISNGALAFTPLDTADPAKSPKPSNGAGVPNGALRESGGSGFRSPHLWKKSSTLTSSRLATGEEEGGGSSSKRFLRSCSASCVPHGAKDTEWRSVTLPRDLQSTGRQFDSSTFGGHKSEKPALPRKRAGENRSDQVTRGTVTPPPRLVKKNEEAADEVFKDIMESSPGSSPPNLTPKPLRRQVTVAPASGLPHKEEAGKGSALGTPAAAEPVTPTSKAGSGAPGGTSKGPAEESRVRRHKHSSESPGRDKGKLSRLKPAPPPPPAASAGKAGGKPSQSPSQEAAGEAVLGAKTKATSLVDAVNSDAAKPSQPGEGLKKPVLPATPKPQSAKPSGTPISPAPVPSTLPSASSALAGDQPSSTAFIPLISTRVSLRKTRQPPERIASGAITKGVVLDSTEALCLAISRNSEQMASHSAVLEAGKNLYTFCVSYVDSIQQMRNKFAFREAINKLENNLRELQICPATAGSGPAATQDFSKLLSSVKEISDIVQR

Turning to `O=C(Nc1cc(N2CCNCC2)cc(C(F)(F)F)c1)c1cccc2cc(Oc3ccnc(NC(=O)C4CC4)c3)ccc12` [Example 10, 6-[[2-(Cyclopropanecarbonyl-amino)-pyridin-4-yl]oxy]-naphthalene-1-carboxylic acid (3-piperazin-1-yl-5-trifluoromethyl-phenyl)-amide], the figures for the 50% inhibitory concentration (IC50) in assay [1] and in assay [2] were 101 to 370 nM and less than 5 nM, respectively.

One may read the IC50 as the concentration that gives 50% inhibition.
